Activity calls are given as the source filed them.
How the values were obtained:
[1] = target: Dual specificity protein kinase CLK1 (Homo sapiens, UniProt P49759); experiment: CLK1 kinase inhibitors, off-target check, dose response, selectivity assay for Dyrk1A inhibitor project, biochemical, cherry-picked samples (AID 588811)
[2] = activation of PKA-R1A holoenzyme dissociation, dose response, counter-screen for PKA-R2B activator project, biochemical, Cy5-IP20 fluorescence polarization, 1536-well, triplicate (AID 504896)
[3] = target: Genome polyprotein (dengue virus type 2, UniProt P29990); experiment: Dengue-2 NS5 methyltransferase inhibitors, primary screen, biochemical, confirmation dose response (AID 588689); type: functional
Sequence of Genome polyprotein (P29990 2492-3391 limits assumed): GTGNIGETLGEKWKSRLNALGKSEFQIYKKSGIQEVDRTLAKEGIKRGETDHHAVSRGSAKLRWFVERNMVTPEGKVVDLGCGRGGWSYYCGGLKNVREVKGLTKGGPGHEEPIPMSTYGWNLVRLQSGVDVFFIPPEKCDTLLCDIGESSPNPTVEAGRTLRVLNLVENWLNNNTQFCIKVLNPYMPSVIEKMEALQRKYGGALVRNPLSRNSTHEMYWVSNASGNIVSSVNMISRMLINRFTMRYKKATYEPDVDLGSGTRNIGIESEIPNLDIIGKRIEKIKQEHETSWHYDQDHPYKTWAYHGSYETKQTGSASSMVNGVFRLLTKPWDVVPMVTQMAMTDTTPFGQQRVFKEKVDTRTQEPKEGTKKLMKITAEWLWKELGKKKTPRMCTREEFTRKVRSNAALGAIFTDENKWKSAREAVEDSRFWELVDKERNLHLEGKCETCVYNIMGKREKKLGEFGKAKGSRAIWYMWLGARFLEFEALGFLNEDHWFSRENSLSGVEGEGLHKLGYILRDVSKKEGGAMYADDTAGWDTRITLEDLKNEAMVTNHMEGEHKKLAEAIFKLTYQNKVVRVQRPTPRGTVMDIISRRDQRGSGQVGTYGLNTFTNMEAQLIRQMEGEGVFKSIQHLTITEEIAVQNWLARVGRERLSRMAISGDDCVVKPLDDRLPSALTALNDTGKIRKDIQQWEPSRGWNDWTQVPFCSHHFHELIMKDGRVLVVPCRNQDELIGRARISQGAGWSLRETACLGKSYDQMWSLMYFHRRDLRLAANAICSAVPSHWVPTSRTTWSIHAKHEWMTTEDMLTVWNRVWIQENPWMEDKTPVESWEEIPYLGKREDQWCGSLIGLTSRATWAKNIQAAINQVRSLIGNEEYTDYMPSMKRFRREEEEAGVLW

[4] = Fluorescence polarization-based biochemical high throughput dose response assay for activators of the Protein Kinase A-R2B (PKA-R2B) complex. [Related pubchem assays (depositor defined):AID504700, AID504704, AID504796, AID504797]
[5] = target: T1, Sentrin-specific protease 8 (Homo sapiens, UniProt Q96LD8); experiment: SENP8 protease inhibitors, SAR follow-up, biochemical, luminescence (AID 504501); type: functional
T1 sequence (Q96LD8 whole entry): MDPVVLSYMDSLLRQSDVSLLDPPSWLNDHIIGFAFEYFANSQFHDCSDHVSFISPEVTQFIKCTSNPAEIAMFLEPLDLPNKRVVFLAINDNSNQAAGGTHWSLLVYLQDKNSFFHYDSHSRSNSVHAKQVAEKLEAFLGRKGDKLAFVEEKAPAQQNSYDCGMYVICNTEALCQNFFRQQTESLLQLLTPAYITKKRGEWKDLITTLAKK

[6] = target: T2, Caspase-3 (Homo sapiens, UniProt P42574); experiment: SAR Analysis of small molecule inhibitors of Sentrin-specific proteases (SENPs) using a Caspase-3 Selectivity assay. [Related pubchem assays (depositor defined):AID2540, AID2599, AID434973, AID489001]; type: functional
T2 sequence (P42574 whole entry): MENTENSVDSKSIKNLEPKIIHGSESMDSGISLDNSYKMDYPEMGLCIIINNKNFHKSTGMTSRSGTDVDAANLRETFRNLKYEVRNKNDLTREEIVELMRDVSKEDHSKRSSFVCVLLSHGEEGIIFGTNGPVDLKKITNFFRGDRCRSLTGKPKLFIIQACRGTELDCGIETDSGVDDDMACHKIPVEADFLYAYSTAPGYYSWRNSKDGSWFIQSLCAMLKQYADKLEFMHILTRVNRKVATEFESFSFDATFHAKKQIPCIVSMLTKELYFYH

[7] = target: T3, Sentrin-specific protease 6 (Homo sapiens, UniProt Q9GZR1); type: functional
T3 sequence (Q9GZR1 whole entry): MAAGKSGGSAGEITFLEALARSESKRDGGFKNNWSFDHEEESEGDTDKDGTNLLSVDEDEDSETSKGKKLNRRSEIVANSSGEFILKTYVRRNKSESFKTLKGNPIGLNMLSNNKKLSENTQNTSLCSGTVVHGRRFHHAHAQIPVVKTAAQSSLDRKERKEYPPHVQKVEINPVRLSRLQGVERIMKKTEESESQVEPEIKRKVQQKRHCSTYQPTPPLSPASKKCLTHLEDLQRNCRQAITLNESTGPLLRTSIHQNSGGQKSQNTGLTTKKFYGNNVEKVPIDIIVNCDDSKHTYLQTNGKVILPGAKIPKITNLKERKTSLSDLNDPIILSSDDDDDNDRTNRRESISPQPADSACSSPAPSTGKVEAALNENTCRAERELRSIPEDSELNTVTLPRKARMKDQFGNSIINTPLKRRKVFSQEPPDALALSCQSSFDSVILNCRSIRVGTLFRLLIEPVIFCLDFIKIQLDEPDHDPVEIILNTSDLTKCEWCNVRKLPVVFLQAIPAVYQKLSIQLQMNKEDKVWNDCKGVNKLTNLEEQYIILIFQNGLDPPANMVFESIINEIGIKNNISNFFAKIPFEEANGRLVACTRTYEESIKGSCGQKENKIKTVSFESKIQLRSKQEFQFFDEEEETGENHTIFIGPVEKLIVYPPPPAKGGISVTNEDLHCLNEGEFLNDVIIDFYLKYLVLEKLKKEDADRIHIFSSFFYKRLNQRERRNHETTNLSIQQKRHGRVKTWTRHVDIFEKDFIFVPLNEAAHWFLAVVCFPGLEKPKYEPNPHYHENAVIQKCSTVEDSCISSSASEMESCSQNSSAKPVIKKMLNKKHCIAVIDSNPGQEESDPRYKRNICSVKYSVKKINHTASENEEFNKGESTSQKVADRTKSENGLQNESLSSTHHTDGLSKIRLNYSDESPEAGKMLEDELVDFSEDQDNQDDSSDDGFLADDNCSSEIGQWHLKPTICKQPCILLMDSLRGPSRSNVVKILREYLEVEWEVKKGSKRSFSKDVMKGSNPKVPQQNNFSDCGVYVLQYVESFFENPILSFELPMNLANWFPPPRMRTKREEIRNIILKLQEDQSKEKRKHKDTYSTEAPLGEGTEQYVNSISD

[8] = target: T3, Sentrin-specific protease 6; experiment: SAR Analysis of small molecule inhibitors of Sentrin-specific protease 6 (SENP6) using a Luminescent assay. [Related pubchem assays (depositor defined):AID2582, AID2599]; type: functional
[9] = target: T4, Polyadenylate-binding protein 1 (Homo sapiens, UniProt P11940); experiment: PABP1 MLLE–PAM2 interaction inhibitors, dose response, miRNA deadenylation inhibitor project, biochemical, fluorescence polarization, Cy5-PAM2 peptide, secondary (AID 602260); type: functional; conditions: read-out: IC50_Mean
T4 sequence (P11940 whole entry): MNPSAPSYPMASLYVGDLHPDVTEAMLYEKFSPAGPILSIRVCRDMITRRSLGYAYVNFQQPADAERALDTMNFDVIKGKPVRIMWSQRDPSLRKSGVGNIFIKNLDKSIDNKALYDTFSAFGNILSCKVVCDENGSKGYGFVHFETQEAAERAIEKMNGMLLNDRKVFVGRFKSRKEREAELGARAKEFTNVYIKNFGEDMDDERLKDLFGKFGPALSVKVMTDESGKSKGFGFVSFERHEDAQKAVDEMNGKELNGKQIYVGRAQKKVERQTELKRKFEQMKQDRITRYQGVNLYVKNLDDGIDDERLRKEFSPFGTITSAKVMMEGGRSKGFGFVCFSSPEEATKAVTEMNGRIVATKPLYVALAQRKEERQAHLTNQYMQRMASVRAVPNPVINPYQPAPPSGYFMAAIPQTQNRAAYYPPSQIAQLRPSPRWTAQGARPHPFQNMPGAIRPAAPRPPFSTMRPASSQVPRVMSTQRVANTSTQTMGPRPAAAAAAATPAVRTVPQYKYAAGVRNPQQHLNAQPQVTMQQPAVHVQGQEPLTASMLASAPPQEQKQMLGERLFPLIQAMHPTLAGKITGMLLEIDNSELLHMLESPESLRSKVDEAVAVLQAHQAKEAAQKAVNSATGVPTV

[10] = target: T5, Sentrin-specific protease 7 (Homo sapiens, UniProt Q9BQF6); experiment: SENP7 protease inhibitors, SAR follow-up, biochemical, luminescence (AID 504497); type: functional
T5 sequence (Q9BQF6 whole entry): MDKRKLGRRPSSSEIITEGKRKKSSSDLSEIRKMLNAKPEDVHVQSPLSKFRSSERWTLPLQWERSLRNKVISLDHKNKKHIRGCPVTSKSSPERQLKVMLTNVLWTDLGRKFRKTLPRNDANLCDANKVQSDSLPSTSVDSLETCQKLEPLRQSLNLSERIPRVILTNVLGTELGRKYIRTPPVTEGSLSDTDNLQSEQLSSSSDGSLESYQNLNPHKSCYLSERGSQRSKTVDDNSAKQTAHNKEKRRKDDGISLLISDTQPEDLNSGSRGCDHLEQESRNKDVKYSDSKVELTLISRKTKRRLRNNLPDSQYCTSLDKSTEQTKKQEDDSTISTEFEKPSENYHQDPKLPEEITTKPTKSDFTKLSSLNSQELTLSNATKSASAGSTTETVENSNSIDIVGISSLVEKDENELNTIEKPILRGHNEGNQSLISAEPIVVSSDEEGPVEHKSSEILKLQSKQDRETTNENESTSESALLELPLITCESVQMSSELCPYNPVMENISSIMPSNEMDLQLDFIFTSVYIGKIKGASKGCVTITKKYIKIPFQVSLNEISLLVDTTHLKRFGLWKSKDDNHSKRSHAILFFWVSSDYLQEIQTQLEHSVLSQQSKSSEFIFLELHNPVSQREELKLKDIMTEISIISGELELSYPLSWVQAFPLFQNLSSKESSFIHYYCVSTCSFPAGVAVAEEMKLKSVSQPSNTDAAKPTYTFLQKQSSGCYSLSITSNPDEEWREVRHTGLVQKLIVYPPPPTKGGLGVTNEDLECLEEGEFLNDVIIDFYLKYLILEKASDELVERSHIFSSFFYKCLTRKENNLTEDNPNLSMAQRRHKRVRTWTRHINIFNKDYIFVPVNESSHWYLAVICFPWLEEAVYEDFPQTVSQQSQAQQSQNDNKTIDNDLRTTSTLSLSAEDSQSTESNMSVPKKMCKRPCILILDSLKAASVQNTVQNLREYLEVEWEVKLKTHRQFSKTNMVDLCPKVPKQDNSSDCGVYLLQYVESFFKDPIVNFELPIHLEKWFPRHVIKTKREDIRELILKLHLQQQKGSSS

[11] = target: T6, Mannose-6-phosphate isomerase (Homo sapiens, UniProt P34949); experiment: human PMI inhibitors, high substrate, primary screen, biochemical, fluorescence intensity, high mannose 6-phosphate (AID 1220)
T6 sequence (P34949 whole entry): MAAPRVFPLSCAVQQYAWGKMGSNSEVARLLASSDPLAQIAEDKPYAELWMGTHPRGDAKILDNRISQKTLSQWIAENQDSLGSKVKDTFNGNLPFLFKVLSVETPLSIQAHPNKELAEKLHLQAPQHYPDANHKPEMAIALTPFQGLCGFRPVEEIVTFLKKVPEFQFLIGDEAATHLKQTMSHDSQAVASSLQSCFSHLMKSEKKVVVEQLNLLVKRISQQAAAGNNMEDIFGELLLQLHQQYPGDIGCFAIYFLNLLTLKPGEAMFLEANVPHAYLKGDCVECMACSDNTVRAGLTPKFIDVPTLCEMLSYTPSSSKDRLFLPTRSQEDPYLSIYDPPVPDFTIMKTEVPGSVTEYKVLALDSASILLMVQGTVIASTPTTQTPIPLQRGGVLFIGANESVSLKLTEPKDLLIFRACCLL

[12] = target: Dual specificity tyrosine-phosphorylation-regulated kinase 1A (Rattus norvegicus, UniProt Q63470); type: biochemical, Homo sapiens
[13] = target: T2, Caspase-3; type: functional
[14] = target: T4, Polyadenylate-binding protein 1; experiment: PABP1 MLLE–PAM2 binding inhibitor potency, dose response, biochemical, fluorescence polarization, FITC-PAM2 peptide (AID 602259); type: functional; conditions: read-out: IC50_Mean
[15] = target: T5, Sentrin-specific protease 7; type: functional
[16] = target: T1, Sentrin-specific protease 8; type: functional
[17] = system: Streptococcus sp. 'group A'; experiment: growth inhibition of control SK(-) GAS strain, dose response, counter-screen for streptokinase expression inhibitor project, luminescence, kanamycin, BacTiterGlo, confirmation (AID 1900); type: functional, organism-based
[18] = target: T7, Bcl-2-like protein 10 (Homo sapiens, UniProt Q9HD36); experiment: Isothermal titration calorimetry (ITC) with Bcl-B and compounds active in primary screen. [Related pubchem assays (depositor defined):AID1693]; type: functional
T7 sequence (Q9HD36 whole entry): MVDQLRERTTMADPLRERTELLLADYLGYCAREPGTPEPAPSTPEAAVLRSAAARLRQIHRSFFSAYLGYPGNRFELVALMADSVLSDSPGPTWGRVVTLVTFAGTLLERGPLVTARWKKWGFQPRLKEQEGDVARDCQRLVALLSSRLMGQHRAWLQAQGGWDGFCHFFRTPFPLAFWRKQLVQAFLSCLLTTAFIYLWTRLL

[19] = system: Streptococcus; experiment: Group A Streptococcus viability loss, dose response, counter-screen for streptokinase expression inhibitor project, luminescence, BacTiterGlo (AID 1915); type: functional, organism-based;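 note: potency for reduction of bacterial viability or growth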
[20] = target: T8, Streptokinase A (Streptococcus pyogenes serotype M1, UniProt P10520); experiment: S. pyogenes streptokinase expression inhibitors, potency, dose response, plasminogen activation absorbance, OD405 (AID 1914); type: functional, Streptococcus pyogenes M1 GAS;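 note: secreted streptokinase activity via plasminogen activation per viability signal from cell pellet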
T8 sequence (P10520 whole entry): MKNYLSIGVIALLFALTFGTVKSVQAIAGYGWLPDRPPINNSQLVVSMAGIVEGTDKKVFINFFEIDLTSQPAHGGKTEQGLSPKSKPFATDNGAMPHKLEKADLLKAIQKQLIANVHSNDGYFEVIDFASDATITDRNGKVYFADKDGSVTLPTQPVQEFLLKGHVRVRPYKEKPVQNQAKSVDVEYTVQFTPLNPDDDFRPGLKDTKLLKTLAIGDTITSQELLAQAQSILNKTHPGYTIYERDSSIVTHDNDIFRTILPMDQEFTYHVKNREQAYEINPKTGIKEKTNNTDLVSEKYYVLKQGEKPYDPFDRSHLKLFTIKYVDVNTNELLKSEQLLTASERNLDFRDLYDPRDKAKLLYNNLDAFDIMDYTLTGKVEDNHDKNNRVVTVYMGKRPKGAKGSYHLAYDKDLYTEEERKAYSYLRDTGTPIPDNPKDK

Sequence of Dual specificity protein kinase CLK1 (P49759 whole entry): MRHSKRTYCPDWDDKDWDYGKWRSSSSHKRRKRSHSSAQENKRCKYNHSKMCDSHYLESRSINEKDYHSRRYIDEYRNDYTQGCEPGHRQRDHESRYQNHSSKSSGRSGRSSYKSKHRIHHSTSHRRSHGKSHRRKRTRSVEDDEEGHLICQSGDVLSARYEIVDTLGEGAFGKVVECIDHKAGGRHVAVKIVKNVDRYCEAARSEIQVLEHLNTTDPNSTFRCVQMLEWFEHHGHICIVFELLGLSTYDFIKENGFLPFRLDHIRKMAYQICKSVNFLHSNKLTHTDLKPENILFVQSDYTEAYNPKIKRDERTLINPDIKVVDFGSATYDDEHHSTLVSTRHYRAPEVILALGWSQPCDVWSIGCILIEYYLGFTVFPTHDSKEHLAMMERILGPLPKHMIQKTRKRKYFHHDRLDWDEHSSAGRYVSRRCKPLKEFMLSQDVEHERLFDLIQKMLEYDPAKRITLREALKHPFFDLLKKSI

## CSCC(=O)Nc1nc(-c2ccc3c(c2)OCCO3)cs1
[1]
  AC50: 8.63 µM (active)

## CN(C)c1ccc(N=Nc2ccc(S(=O)(=O)O)cc2)c2ccccc12
[2]
  EC50: > 114 µM (inactive)
[3]
  IC50: 46.2 µM (active)
[4]
  EC50: 69 µM (inactive)

## COc1ccc2c(C#N)c3ccccn3c2c1
[5]
  IC50: > 99 µM (inactive)
[6]
  IC50: 65.4 µM (active)
[7]
  IC50: 16.6 µM (active)
[8]
  IC50: > 99 µM (inactive)
[9]
  IC50: > 66 µM (inactive)
[10]
  IC50: > 99 µM (inactive)
[11]
  IC50: > 50 µM (not active)
[12]
  AC50: 0.242 µM (active)
[13]
  IC50: 54.8 µM (active)
[14]
  IC50: 21.2 µM (inactive)
[15]
  IC50: > 100 µM (inactive)
[16]
  IC50: > 100 µM (inactive)

## O=c1c2c(n3nnnc3n1Cc1ccccc1)-c1ccccc1CC21CCCC1
[17]
  EC50: 26.3 µM (active)
[18]
  IC50: 0.2 µM (active)
[19]
  EC50: > 150 µM (not active)
[20]
  EC50: 6.74 µM (active)
